In patent US20110245200A1, “USE OF IDRABI[…] DECREASING THE INCIDENCE OF BLEEDINGS DURING AN ANTI[…]” (SANOFI-AVENTIS, priority 2008, published 2011):

Experiments:
[1] = test system: activated factor X; experiment: EQUINOX clinical trial: bioequipotency assessed by anti-Xa activity; type: in vivo, human; conditions: equimolar doses
Text: (§1) This trial was aimed at studying the bioequipotency of idrabiotaparinux and idraparinux, as assessed by anti-Xa activity at month 6, in patients with acute symptomatic DVT, as well as studying the ability to neutralize idrabiotaparinux with avidin, and also at documenting the safety and efficacy of idrabiotaparinux and idraparinux.

[2] = test system: patients with DVT; experiment: Putative indirect comparison of idrabiotaparinux with standard treatment (EQUINOX OR times van Gogh DVT OR); type: in vivo, human; conditions: 95% CI: 0.061-1.020; p value 0.053; calculated as 0.200 times 1.245
Procedure: For major bleedings, the putative odds ratio (OR) comparing idrabiotaparinux to the standard treatment (OR=0.249 [95% CI: 0.061-1.020]) yielded a p value of 0.053; this putative OR was calculated as OR of idrabiotaparinux versus idraparinux in EQUINOX (0.200) times OR of idraparinux versus standard treatment in van Gogh DVT (1.245).

[3] = test system: patients with acute symptomatic DVT; experiment: EQUINOX clinical trial: bleeding (safety) and efficacy over 6 months of treatment; type: in vivo, human; conditions: for Kaplan-Meier cumulative incidence of first bleeding (any bleeding), comparison of the two groups: FIG. 1; for Major bleeding, number of patients [n] / Any bleeding (clinically relevant major or non-major), % of patients / Any bleeding (clinically relevant major or non-major), number of patients [n] / Major bleeding, % of patients (incidence): first study drug administration up to D182; for Any bleeding (clinically relevant major or non-major), % of patients: crude rate; for Any bleeding (clinically relevant major or non-major), number of patients [n]: once-weekly s.c., equimolar doses (idrabiotaparinux 3.0 mg, idraparinux 2.5 mg); for Major bleeding, % of patients (incidence): p=0.006 Fisher's exact test
Text: as §1
The study was an international, multi-center, double-blind, randomized, with two parallel groups phase III study, in patients treated for acute symptomatic DVT. In order to get 600 patients (300 patients in each treatment group) who completed the 6-month treatment with idrabiotaparinux or idraparinux, 700 patients with confirmed symptomatic DVT of the lower limbs were to be randomized to either idrabiotaparinux (n=350 patients) or idraparinux (n=350 patients). 300 completed patients per group, with a 6-month extent of exposure to the drug, were considered as an adequate sample size to assess clinical safety of idrabiotaparinux, i.e. to characterize the pattern of adverse events over time.
During the study period, patients were treated with equimolar doses of idrabiotaparinux (3.0 mg) or of idraparinux (2.5 mg). The drug was injected subcutaneously, once-weekly.
For safety, the main endpoints were clinically relevant bleeding (major or clinically relevant non-major), as classified by the Central Independent Adjudication Committee (hereafter “CIAC”), and death (cause of death validated by the CIAC).
The safety population consisted of all randomized patients who took at least one dose of study medication (all treated population). Patients were analyzed according to the treatment they actually received.
The main safety analysis period was the randomized treatment period, defined as the period from first study drug administration (taken as Day 1) up to Day 182 (hereafter “D182”).
The numbers and percentages of patients with clinically relevant bleeding within 6 months (from first study drug administration up to Day 182) were presented by treatment group. The rate of any clinically relevant bleeding was calculated by dividing the number of patients with this event by the number of treated patients (crude rate). Bleeding rate estimates and exact 95% confidence interval (hereafter “C1”) were presented by treatment group. Cumulative incidences of any clinically relevant bleeding during the on-treatment period were also described by treatment group using the Kaplan-Meier method. Time to first clinically relevant bleeding was censored at the minimum day between: Day 182; the day of last study drug administration+7 days; the day of death; and the day of last clinical event assessment giving any information on bleeding symptoms.
The numbers and percentages (crude rates) of patients with major bleedings within 6 months (from first study drug administration up to Day 182) were also presented by treatment group. The criteria used by the CIAC to classify major bleedings were summarized according to the worst severity. The order of severity was: fatal bleeding, including fatal intra-cranial hemorrhage (hereafter “ICH”), non-fatal bleeding within a critical organ, non-fatal bleeding with fall in hemoglobin or transfusion.

[4] = test system: patients with DVT; experiment: VAN GOGH clinical trial (DVT): bleeding incidence, idraparinux versus standard therapy; type: in vivo, human
Text: According to the results published in N. Engl.

[5] = test system: patients with DVT; conditions: 6 months after start of treatment (Day 183), N. Engl. J. Med., 2007, 357, 1094-104; cited from earlier work
[6] = major bleedings up to D182 by adjudication criterion, all treated population

For `CO[C@H]1O[C@H](COS(=O)(=O)O)[C@@H](O[C@@H]2O[C@@H](C(=O)O)[C@@H](O[C@H]3O[C@H](COS(=O)(=O)O)[C@@H](O[C@@H]4O[C@H](C(=O)O)[C@@H](O[C@H]5O[C@H](COS(=O)(=O)O)[C@@H](OC)[C@H](OC)[C@H]5NC(=O)CCCCCNC(=O)CCCC[C@@H]5SC[C@@H]6NC(=O)N[C@@H]65)[C@H](OC)[C@H]4OC)[C@H](OS(=O)(=O)O)[C@H]3OS(=O)(=O)O)[C@H](OC)[C@H]2OC)[C@H](OS(=O)(=O)O)[C@H]1OS(=O)(=O)O` [Idrabiotaparinux, idrabiotaparinux], the “anti-activated factor X pharmacological activity (anti-Xa activity) compared with idraparinux” value [1] was “same”, the “Putative odds ratio (OR) for major bleedings, idrabiotaparinux versus standard treatment” value [2] was 0.249 and the “Odds ratio for major bleedings, idrabiotaparinux versus idraparinux” value ([3]; EQUINOX) was 0.200. For the same compound, the “Kaplan-Meier cumulative incidence of first bleeding (any bleeding), comparison of the two groups” value ([3]; on-treatment period, at month 3) was “comparable”, the “Kaplan-Meier cumulative incidence of first major bleeding, comparison of the two groups” value ([3]; FIG. 2, on-treatment period, after month 2) was “marked difference in major bleeding incidences between the two treatment groups, in favour of the idrabiotaparinux group” and the “Major bleeding, number of patients [n]” value ([3]; all treated population) was 3. The “Any bleeding (clinically relevant major or non-major), % of patients” value ([3]; all treated population) was 5.2%, the “Any bleeding (clinically relevant major or non-major), number of patients [n]” value ([3]; all treated population) was 20 and the “Major bleeding, % of patients (incidence)” value ([3]; all treated population) was 0.8%. For the same compound, the “Fatal bleeding: Gastrointestinal, number of patients [n]” value [3, 6] was 0, the “Fatal bleeding: Intracranial, number of patients [n]” value (shortened to “Fatal bleeding: Intracranial, number”) [3, 6] was 0 and the “Fatal bleeding: Other, % of patients” value [3, 6] was 0.3%. For the same compound, the “Fatal bleeding: Other, number of patients [n]” value (from here on “Fatal bleeding: Other, number”) [3, 6] was 1, the “Non-fatal bleeding associated with a fall in hemoglobin >=2 g/dL and/or leading to a transfusion >=2 units of blood, % of patients” value [3, 6] was 0.5% and the “Non-fatal bleeding associated with a fall in hemoglobin >=2 g/dL and/or leading to a transfusion >=2 units of blood, number of patients [n]” value [3, 6] was 2. The “Non-fatal bleeding into a critical organ: Intracranial, number of patients [n]” value [3, 6] was 0, the “Non-fatal bleeding into a critical organ: Other, number of patients [n]” value [3, 6] was 0 and the “Non-fatal bleeding into a critical organ: Pericardial, number of patients [n]” value [3, 6] was 0. The “Non-fatal bleeding into a critical organ: Retroperitoneal, number of patients [n]” value [3, 6] was 0, the “Fatal bleeding: Other, number” value ([3]; major bleedings up to D182 by adjudication criterion, all treated population, listed as idrabiotaparinux) was “One” and the “Safety (observed bleedings) compared with idraparinux” value ([3]; patients with DVT treated for 6 months, equimolar doses) was “better safety with less observed bleedings”.

In the case of `CO[C@H]1O[C@H](COS(=O)(=O)O)[C@@H](O[C@@H]2O[C@@H](C(=O)O)[C@@H](O[C@H]3O[C@H](COS(=O)(=O)O)[C@@H](O[C@@H]4O[C@H](C(=O)O)[C@@H](O[C@H]5O[C@H](COS(=O)(=O)O)[C@@H](OC)[C@H](OC)[C@H]5OC)[C@H](OC)[C@H]4OC)[C@H](OS(=O)(=O)O)[C@H]3OS(=O)(=O)O)[C@H](OC)[C@H]2OC)[C@H](OS(=O)(=O)O)[C@H]1OS(=O)(=O)O` [Idraparinux, idraparinux], the “Odds ratio for major bleedings, idraparinux versus standard treatment” value [4] is reported as 1.245, the “Kaplan-Meier cumulative incidence of first bleeding (any bleeding), comparison of the two groups” value ([3]; on-treatment period, at month 6) is reported as “higher than in the idrabiotaparinux group” and the “Major bleeding, number of patients [n]” value ([3]; all treated population) is reported as 14. For the same compound, the “Any bleeding (clinically relevant major or non-major), % of patients” value ([3]; all treated population) was 7.3%, the “Any bleeding (clinically relevant major or non-major), number of patients [n]” value ([3]; all treated population) was 27 and the “Major bleeding, % of patients (incidence)” value ([3]; all treated population) was 3.8%. The “Fatal bleeding: Gastrointestinal, number of patients [n]” value [3, 6] was 0, the “Fatal bleeding: Intracranial, % of patients” value [3, 6] was 0.8% and the “Fatal bleeding: Intracranial, number” value [3, 6] was 3. The “Fatal bleeding: Other, number” value [3, 6] was 0, the “Non-fatal bleeding associated with a fall in hemoglobin >=2 g/dL and/or leading to a transfusion >=2 units of blood, % of patients” value [3, 6] was 1.9% and the “Non-fatal bleeding associated with a fall in hemoglobin >=2 g/dL and/or leading to a transfusion >=2 units of blood, number of patients [n]” value [3, 6] was 7. The “Non-fatal bleeding into a critical organ: Intracranial, % of patients” value [3, 6] was 0.5%, the “Non-fatal bleeding into a critical organ: Intracranial, number of patients [n]” value [3, 6] was 2 and the “Non-fatal bleeding into a critical organ: Other, number of patients [n]” value [3, 6] was 0. For the same compound, the “Non-fatal bleeding into a critical organ: Pericardial, number of patients [n]” value [3, 6] was 0, the “Non-fatal bleeding into a critical organ: Retroperitoneal, % of patients” value [3, 6] was 0.5% and the “Non-fatal bleeding into a critical organ: Retroperitoneal, number of patients [n]” value [3, 6] was 2. The “Fatal bleeding: Intracranial, number” value ([3]; major bleedings up to D182 by adjudication criterion, all treated population, listed as idraparinux) was “three”, the “Intracranial hemorrhages observed (fatal and non-fatal), number” value ([3]; up to D182, all treated population) was “five” and the “Incidence of clinically relevant bleedings (any bleedings)” value [5] was 8.3%. The “Rate of major bleedings” value [5] was 1.9%.
